According to publication PMC6753678, “Fueling Open Innovation for Malaria Transmission-Blocking Drugs: Hundreds of Molecules Targeting Early Parasite Mosquito Stages” (Frontiers in Microbiology, 2019):
Where two headings read alike, the source gives them in different places.

What was measured:
HepG2 cells [1] = experiment: HepG2 cytotoxicity assay; conditions: HepG2 cytotoxicity unified across the three screens
Procedure, shortened: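 Here viability after a 48 h compound incubation (37°C, humidified 5% CO2) is measured by fluorescence and expressed as percent inhibition, with doxorubicin at 50 μM and DMSO as the bounding controls.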

[2] = test system: P. falciparum late stage (stages IV-V) gametocytes; design: method as in Almela et al 2016; conditions: TCAMS screen comparison; ref Almela et al 2016; read-out: Pf GCT ATP IC50; cited from earlier work
[3] = test system: P. falciparum female gametocytes; design: method as in Miguel-Blanco et al 2017; conditions: TCAMS screen comparison; ref Miguel-Blanco et al 2017; read-out: Pf FGAA IC50; cited from earlier work
HepG2 cells [4] = conditions: cited from earlier work
[5] = test system: P. falciparum female gametocytes; experiment: P. falciparum female gametogenesis assay (Pf FGAA); conditions: 1: YES; 0: NO
[6] = test system: P. falciparum late stage (stages IV-V) gametocytes; experiment: P. falciparum late stage gametocyte ATP depletion assay (Pf GC-ATP); conditions: 1: YES; 0: NO
[7] = value reported with the Pf FGAA screen, ref Miguel-Blanco et al 2017
[8] = value reported with the Pf GCT ATP screen, ref Almela et al 2016

SMILES | Unified cytotox (HepG2 cells [1]) | IC50 [2] | IC50 [3] | HepG2 cytoxicity (HepG2 cells [4]; [7]) | HepG2 cytoxicity (HepG2 cells [4]; [8]) | Is compound selective in assay? Pf FGAA active? [5] | Is compound selective in assay? Pf GC-ATP active? [6]
COc1cccc(-c2csc(C(=O)NCC3CCN(Cc4ccc(C(C)(C)C)cc4)C3)c2)c1.O=C(O)C(F)(F)F (centres unmarked) [TCMDC-134447] | 7.64 µM | 0.23 µM | 0.65 µM | 5.78 µM | 9.5 µM | 1 (1: YES) | 1 (1: YES)
COc1cccc(OC)c1CN1CCC(N(C)CCCCCCCCN2CCC(OC(=O)Nc3ccccc3-c3ccccc3)CC2)CC1 [TCMDC-134684] | 2.66 µM | 1.04 µM | 2.26 µM | 1.93 µM | 3.4 µM | 0 (0: NO) | 0 (0: NO)
COc1cccc(OC)c1CN1CCC(N(C)CCCCCCCCCN2CCC(OC(=O)Nc3ccccc3-c3ccccc3)CC2)CC1 [TCMDC-134690] | 1.91 µM | 0.26 µM | 1.31 µM | 1.91 µM | <1.56 µM | 0 (0: NO) | 0 (0: NO)
Fc1ccc(OC2CN(c3nccc(NCc4ccccc4Cl)n3)C2)cc1 [TCMDC-135110] | 83.45 µM | 2.51 µM | 5.22 µM | 83.45 µM | >25 µM | 1 (1: YES) | 1 (1: YES)
CCn1c(Sc2ccc([N+](=O)[O-])c(C#N)c2)nnc1-c1cccc(Cl)c1 [TCMDC-135234] | 18.80 µM | 3.04 µM | 1.34 µM | 18.80 µM | >25 µM | 1 (1: YES) | 0 (0: NO)
CCn1c(-c2nonc2N)nc2c(-c3cc4ccccc4s3)ncc(C(=O)N3CCC(N)C3)c21.O=C(O)C(F)(F)F (centres unmarked) [TCMDC-135281] | 2.25 µM | 0.35 µM | 0.45 µM | 1.00 µM | 3.5 µM | 0 (0: NO) | 0 (0: NO)
CNCCNc1nccc(N2CCc3ncnc(Nc4ccc(OCc5cccc(F)c5)c(Cl)c4)c3C2)n1 [TCMDC-135478] | 6.39 µM | 0.67 µM | 1.67 µM | 5.62 µM | 7.16 µM | 0 (0: NO) | 0 (0: NO)
COc1ccc(-c2cnc3[nH]cc(-c4ccncc4)c3c2)cc1OC [TCMDC-135853] | 7.44 µM | 0.9 µM | 2.26 µM | 11.79 µM | 3.1 µM | 0 (0: NO) | 0 (0: NO)
CCn1c(-c2nonc2N)nc2c(-c3cccc(NC(=O)Nc4cccc(Cl)c4)c3)ncc(OCCCN)c21.O=C(O)C(F)(F)F [TCMDC-136193] | 47.43 µM | 2.17 µM | 1.18 µM | 80.36 µM | 14.5 µM | 1 (1: YES) | 1 (1: YES)
Cl.c1ccc2c(C3CCN(CCCCOc4ccc5c(c4)CCN(CC4CC4)CC5)CC3)c[nH]c2c1 [TCMDC-136244] | 5.98 µM | 0.71 µM | 1.15 µM | 5.15 µM | 6.81 µM | 0 (0: NO) | 0 (0: NO)
COc1ccc(Nc2nccc(-c3ccc4ccnc(NCCCCN)c4c3)n2)cc1 [TCMDC-136642] | 14.29 µM | 0.33 µM | 1.51 µM | 14.29 µM | >25 µM | 0 (0: NO) | 1 (1: YES)
